Source: publication PMC7051966, “Substrate Specific Inhibitor Designed against the Immunomodulator GMF-beta Reversed the Experimental Autoimmune Encephalomyelitis” (Scientific Reports, 2020)

Target: T1, hGMF-β (human glia maturation factor-β) (Homo sapiens, UniProt P60983)
T1 construct: gene GMFB; amine-coupled to CM5 chip
Assay: SPR (Biacore T200), GMF-β immobilised on CM5 chip, […] fit
Type: binding

T1 sequence (P60983 2-142): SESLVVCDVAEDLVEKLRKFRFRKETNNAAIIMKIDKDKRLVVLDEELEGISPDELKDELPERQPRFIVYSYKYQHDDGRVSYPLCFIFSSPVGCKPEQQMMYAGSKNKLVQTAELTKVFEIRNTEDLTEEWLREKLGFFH

OCc1cccc2[nH]ncc12 [II, 1-H-indazole-4yl methanol]
Kd: 20 µM
